# Experimental data taken from US11298412B2, “Sphingoid compounds for prophylaxis and/or therapy of coronaviridae infection” (priority 2020, dated 2022).
# “Also recorded” adds a separate entry of the source.
# Assays:
# [1] = Surface sphingosine in mouse nasal mucosa after intranasal application, in situ sphingosine kinase assay; type: in vivo; details: wild-type mice; 10 μL of 10 μM or 100 μM into the nostrils; 1, 4 and 8 hrs; without washing
# Experimental: Sphingosine (SPH) was applied into the nose of wild-type mice and the concentration of sphingosine on the epithelial cell surface was determined after 1, 4 and 8 hrs (a.i.: after injection of sphingosine). To this end, 10 μL of a 10 μM or a 100 μM sphingosine solution was applied into the nostrils of wild-type mice. Controls received the solvent, i.e. octylglucopyranoside at the same concentration used when sphingosine was applied, or were left untreated. Mice were slightly and very briefly anesthetized with ether. For the intranasal application we used a blunt-end 30 g needle that was covered with a thin plastic film. The blunt-ended needle was inserted into the nostrils approximately 2 mm. Mice were sacrificed after the indicated time, the nasal bone was removed, placed on a 30° C. pre-warmed plastic plate and an area of 2 mm×2 mm was immediately incubated with 0.001 units of sphingosine kinase 1 (#6068-SK-010, R&D) in 4 μl of 150 mM sodium acetate (pH 7.4), 1 μM ATP, and 10 μCi [^32P]γATP/sample. Controls were incubated with the same buffer without sphingosine kinase or were left untreated. […] The TLC plates were analyzed with a phosphoimager. Surface sphingosine levels were determined with a standard curve of C18-sphingosine. […]
# [2] = target: T1, receptor binding domain of spike S1 / ACE2 (Homo sapiens, UniProt Q9BYF1); experiment: Binding of recombinant RBD of spike S1 to immobilized Fc-ACE2, western blot
# T1 construct: purchased Abcam (Fc-ACE2); Sino Biologicals (RBD-spike) ab273687 (Fc-ACE2); MA FE2702B, #40150-R007 (as printed for RBD-spike)
# T1 sequence (Q9BYF1 18-740): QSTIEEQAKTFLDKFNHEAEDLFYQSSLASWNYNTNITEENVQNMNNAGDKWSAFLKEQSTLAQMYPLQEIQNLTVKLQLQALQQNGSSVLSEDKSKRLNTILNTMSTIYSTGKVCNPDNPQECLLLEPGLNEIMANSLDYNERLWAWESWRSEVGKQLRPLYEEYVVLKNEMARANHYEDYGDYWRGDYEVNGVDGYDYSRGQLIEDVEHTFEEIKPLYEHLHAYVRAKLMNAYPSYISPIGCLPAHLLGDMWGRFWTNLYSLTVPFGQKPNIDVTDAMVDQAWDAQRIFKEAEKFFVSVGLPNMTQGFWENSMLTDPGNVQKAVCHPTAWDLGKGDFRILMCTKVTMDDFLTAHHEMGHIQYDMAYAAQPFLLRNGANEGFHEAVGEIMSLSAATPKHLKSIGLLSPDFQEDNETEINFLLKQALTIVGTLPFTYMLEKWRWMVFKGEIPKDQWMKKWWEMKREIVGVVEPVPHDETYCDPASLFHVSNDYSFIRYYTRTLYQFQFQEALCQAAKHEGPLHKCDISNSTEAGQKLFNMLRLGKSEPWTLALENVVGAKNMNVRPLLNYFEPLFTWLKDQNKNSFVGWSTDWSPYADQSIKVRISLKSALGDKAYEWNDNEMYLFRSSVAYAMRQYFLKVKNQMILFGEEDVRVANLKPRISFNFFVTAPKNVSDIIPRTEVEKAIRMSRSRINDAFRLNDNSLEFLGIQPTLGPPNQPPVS
# [3] = target: pp-VSV-SARS-CoV-2 / recombinant ACE2 (Homo sapiens, UniProt Q9BYF1); experiment: Binding of pp-VSV-SARS-CoV-2 to immobilized recombinant ACE2, Vero infection with supernatant; details: 1 or 2 μM sphingosine; immobilized Fc-ACE2
# pp-VSV-SARS-CoV-2 / recombinant ACE2, sequence (Q9BYF1 18-740): as above
# pp-VSV-SARS-CoV-2 = experiment: Adhesion of pp-VSV-SARS-CoV-2 on Vero cells, flow cytometry with anti-spike S1; type: cell-based; details: 20 minutes infection in presence of lipid
# Hela cells = experiment: Effect of sphingosine alone on Hela cells, Trypan Blue cell death; details: uninfected Hela cells; 10 μM or 20 μM
compound,measurement,setting,value
"CCCCCCCCCCCCC/C=C/[C@@H](O)[C@@H](N)CO [sphingosine, (2S,3R,4E)-2-amino-4-octadecene-1,3-diol]",sphingosine concentration on the nasal epithelial cell surface / in the mucosa,[1],dose-dependent accumulation of sphingosine in the mucosa; also recorded: dose dependent increase in the local sphingosine concentration in the nasal mucosa
same,binding of recombinant receptor binding domain of spike S1 to ACE2,[2]; immobilized Fc-ACE2 pre-incubated with 1 μM or 2 μM sphingosine,prevented binding of recombinant receptor binding domain of spike S1 to ACE2
same,binding of the recombinant RBD of spike S1 to ACE2,[2]; immobilized Fc-ACE2 pre-incubated with 2 μM sphingosine,reduced binding of the recombinant RBD of spike S1 to ACE2
same,binding of intact pp-VSV-SARS-CoV-2 to recombinant ACE2,[3],abrogated binding of intact pp-VSV-SARS-CoV-2 to recombinant ACE2; also recorded: prevents binding of SARS-CoV-2 spike protein to the ACE2 receptor
same,binding of pp-VSV-SARS-CoV-2 to the cell surface,pp-VSV-SARS-CoV-2,prevented binding of pp-VSV-SARS-CoV-2 to the cell surface
same,effect of sphingosine itself on the cells (percentage of dead cells),Hela cells,no effect on the cells
